According to PMC9916658, “Design and Synthesis of New Quinazolin-4-one Derivatives with Negative mGlu7 Receptor Modulation Activity and Antipsychotic-Like Properties” (International Journal of Molecular Sciences, 2023):

Experiments:
[1] = target: T1, recombinant human mGlu7 receptor (Homo sapiens, UniProt Q14831); test: NAM mGlu7 activity, forskolin-induced cAMP (HTRF) in T-REx 293 cell line; assay type: cell-based; conditions: forskolin-stimulated cAMP response, 5 µM LSP4-2022 (EC80), T-REx 293 human mGlu7; for inhibition at 10 µM: T-REx-293, 10 μM compound
T1 construct: expressed in transfected cells; host or cells: T-REx 293 (tetracycline-inducible)
Description: The cell lines with the tetracycline-inducible expression of human metabotropic receptors 4, 7, and 8 were described in detail by Chruścicka et al. (mGlu4 receptor NM_000841, mGlu7 receptor NM_000844.2, and mGlu8 receptor NM_000845). Cells were grown under standard cell culture conditions (37 °C, 5% CO2) in DMEM supplemented with 10% tetracycline-free FBS. The expression was induced through the addition of tetracycline to the culture medium at 0.75 μg/mL.
The determination of the intracellular cAMP through homogeneous time-resolved fluorescence (HTRF) was described in detail previously. Briefly, 48 h before the experiments, the expression of the receptor was induced through the addition of tetracycline to the culture medium; the next day, FBS and L-Glu were removed from the medium. Just before the cAMP measurement, the cells were detached and centrifuged. Then, the cell suspension in Hanks-HEPES (130 mM NaCl, 5.4 mM KCl, 1.8 mM CaCl2, 0.8 mM MgSO4, 0.9 mM NaH2PO4, 20 mM HEPES, and 3.25 mM glucose; pH 7.4) was incubated in the presence of 10 µM forskolin (mGlu7 receptor, 3 µM forskolin), the agonist LSP4-2022 or L-Glu (for mGlu4 and mGlu8), and a compound for 5 min. The intracellular concentration of cyclic AMP was measured by means of a cAMP Gi HTRF kit from Cisbio, according to the manufacturer’s instructions. After 1 h of incubation at room temperature, the fluorescence at 620 nm and 665 nm was read (Tecan Infinite M1000). The results were calculated as the 665 nm/620 nm ratio multiplied by 10^4. Each sample was prepared in triplicate. Data were analyzed using GraphPad Prism version 5.04 for Windows (GraphPad Software, San Diego, USA).
The activity of the compounds was examined in the T-REx 293-cell-line-expressing recombinant human mGlu7 receptor by detecting the level of cyclic AMP in the presence of 5 µM forskolin [7, 41]. […] The substances were incubated with 5 µM LSP4-2022 (EC80).
Firstly, all compounds were screened at 10 μM using three cell lines expressing the mGlu4/7/8 receptor to evaluate selectivity. For the mGlu4 and mGlu8 receptors, glutamic acid was used as an agonist and had good potency. […] VU0155041 and AZ12216052 were used as reference compounds for the mGlu4 and mGlu8 receptors, respectively. The parameter described as “% of inhibition” was introduced to compare the bioactivity of the new compounds to the reference NAM at a 10 μM concentration in the presence of 5 μM LSP4-2022 (0%) and 3 μM forskolin (100%). […] For compounds that passed the screening procedure, the dose–response curve in the presence of LSP4-2022 in 5 μM was evaluated compared to reference NAM ADX71743. Only compounds ALX-063, ALX-065, and ALX-171 (Figure S3, Supplementary Materials) met our conditions regarding bioactivity. All of them were further investigated to determine the EC50 and receptor selectivity. […]
2.1. NAM mGlu7 receptor activity on T-Rex 293 cell line
The activity of compounds was examined on T-REx 293 cell line expressing recombinant human mGlu7 receptor by detecting the level of cyclic AMP in the presence of 5 µM forskolin [14,15]. The cell line was […]
incubated with 5 µM of LSP4-2022 (EC80).

[2] = Metabolic stability in mouse microsomal fraction; assay type: in vitro ADME; conditions: for MML (metabolic stability liver microsome mouse): 1 µM, mouse microsomes 0.3 mg/mL, NADPH-regenerating system; for microsomal CLint at 1 µM: pH 7.4, mouse liver microsomes
Description: A metabolic stability assay was performed using a mouse microsomal fraction (phase I of metabolism) obtained from XenoTech (Kansas City, MO, USA). Compounds for metabolic stability testing were prepared as 10 mM stock solutions in DMSO. Compounds were incubated in triplicate at a 1 µM initial concentration with the microsomal fraction in the presence of NRS (NADPH-regenerating system, 1.3 mM). The final microsomal incubation (0.3 mg/mL) contained the components mentioned below in a pH 7.4 phosphate buffer. Control incubations were conducted without cofactors. The reference compound verapamil was used as a positive control. Incubations were carried out for 1 h on 96-well plates using a heated (+37 °C) orbital shaker (350 rpm). After incubation, the reaction was quenched through the addition of cold acetonitrile. The plate containing the samples was centrifuged at 2000 rpm for 15 min at 4 °C. The supernatants were analyzed using LC–MS.
The HPLC–MS consisted of a Dionex, Ultimate 3000 HPLC, and a Bruker Daltonics amaZon SL mass spectrometer (ESI-IT). The conditions were as follows: Column HPLC Ascentis Express C18 (5 cm × 2.1 mm, 2.7 µm) and an injection volume of 20 µL. An acetonitrile gradient was used with 0.1% formic acid in water at a constant flow rate of 1 mL/min. The programming was as follows: 0–0.5 min 5% ACN, 0.5–3.0 increase of 5–95%, 3.0–3.3 remaining at 95% ACN, 3.3–3.4 min decrease of 95–5% ACN, and 3.4–4.0 min 5% ACN. Samples were analyzed in a single-ion monitoring scan mode in positive mode. The conditions of the main parameters were as follows: a trap drive of 48.2, capillary exit voltage of 140.0 V, dry temperature (set) of 300 °C, nebulizer pressure (set) of 40.00 psi, dry gas flow (set) of 9.00 L/min HV capillary voltage of −4500 V, HV end-plate offset voltage of −500 V.
The percent loss of compounds was calculated through the normalization of the peak area against time 0, where the peak area at T0 was 100%. The elimination rate constant (h) was determined from the plot of ln (percent loss of compound) as a time function and equal to the minor value of the linear curve slope.

T1 sequence (Q14831 35-915): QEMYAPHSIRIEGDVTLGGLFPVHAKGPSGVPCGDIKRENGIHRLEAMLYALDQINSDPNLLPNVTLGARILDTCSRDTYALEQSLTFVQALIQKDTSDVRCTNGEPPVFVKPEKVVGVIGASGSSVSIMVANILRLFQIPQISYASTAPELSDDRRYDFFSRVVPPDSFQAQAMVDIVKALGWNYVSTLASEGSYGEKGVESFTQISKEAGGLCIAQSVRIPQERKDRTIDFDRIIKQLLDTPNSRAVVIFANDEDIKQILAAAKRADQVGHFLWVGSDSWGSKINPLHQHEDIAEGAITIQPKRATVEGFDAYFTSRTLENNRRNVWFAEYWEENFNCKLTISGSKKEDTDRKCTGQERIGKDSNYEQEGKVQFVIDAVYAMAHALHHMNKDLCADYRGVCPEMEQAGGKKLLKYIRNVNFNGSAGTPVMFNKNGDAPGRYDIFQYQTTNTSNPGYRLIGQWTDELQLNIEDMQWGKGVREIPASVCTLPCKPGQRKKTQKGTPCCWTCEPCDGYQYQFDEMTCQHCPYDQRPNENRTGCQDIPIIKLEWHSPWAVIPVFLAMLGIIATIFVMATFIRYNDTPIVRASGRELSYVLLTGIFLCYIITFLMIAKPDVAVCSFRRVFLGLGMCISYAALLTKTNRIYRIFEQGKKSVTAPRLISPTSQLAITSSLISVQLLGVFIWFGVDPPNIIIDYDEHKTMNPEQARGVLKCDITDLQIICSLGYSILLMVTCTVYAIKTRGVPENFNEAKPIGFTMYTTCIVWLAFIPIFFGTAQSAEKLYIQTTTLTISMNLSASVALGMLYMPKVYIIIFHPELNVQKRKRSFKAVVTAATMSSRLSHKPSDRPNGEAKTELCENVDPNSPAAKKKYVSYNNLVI

Structure (SMILES)	inhibition at 10 µM [1]	MML (metabolic stability liver microsome mouse) [2]	microsomal CLint at 1 µM [2]	Inhibition (%) ([1]; 10 μM compound)
CCc1nc2c(o1)CC(c1ccc(C)cc1C)CC2=O (stereo not drawn) [ADX71743, reference compound]	42.6%	0.01 % remaining after 60 min		
Cn1c(-c2ccccc2Cl)nc2ccc(-c3ccccc3)cc2c1=O [ALX-065, 2-(2-chlorophenyl)-3-methyl-6-phenylquinazolin-4(3H)-one]	26.5 ± 11.8%	0.81 % remaining after 60 min	268 µL/min/mg	
COc1cccc(-c2ccc3nc(-c4ccccc4Cl)n(C)c(=O)c3c2)c1OC [ALX-171, 2-(2-chlorophenyl)-6-(2,3-dimethoxyphenyl)-3-methylquinazolin-4(3H)-one]	30.8 ± 6.44%	54.01 % remaining after 60 min	34.2 µL/min/mg	30.8 ± 6.44%
